Values quoted from earlier work as cited in patent US10548835B2, “Methods of reducing the signs of skin aging” (Kimberly-Clark Worldwide, Inc., priority 2014, dated 2020).

Test system: 3T3-L1 cells
Details: literature

## Fucoidan
  adipogenesis (adipocyte differentiation): inhibit adipogenesis
